Data as given in patent EP0061882A1, “Process for preparing isoxazol-3-ylcarboxamides” (ELI LILLY AND COMPANY, priority 1981, dated 1982).

How the values were obtained:
Assay in all cases: broad spectrum greenhouse test, postemergence application
Assay type in all cases: in vivo
Conditions in all cases: rated about 10-13 days after application, scale 1-5
Barnyard Grass = tested on: Barnyard Grass
Source text: (§1) A broad spectrum greenhouse test was run to show the activity of the acyloxadiazoles of formula III.
(§2) Square plastic pots were filled with a sterilized sandy loam soil and were planted to seeds of the various crops and weeds. Each pot was indi- viduall^y fertilized.
(§3) Test compounds of formula III were applied postemergence to some pots and preemergence to others. Postemergence applications of the compounds were sprayed over the emerged plants about 12 days after the seeds were planted. Preemergence applications were sprayed on the soil the day after the seeds were planted.
(§4) Each test compound was dissolved in 1:1 acetone:ethanol at the rate of 2 g. per 100 ml. The solution also contained about 2 g. per 100 ml. of an anionic-nonionic surfactant blend. One ml. of the solution was diluted with deionized water to obtain the dilution desired. The.appropriate amount of the solution was applied to each pot.
(§5) After the compounds were applied, the pots were moved to the greenhouse, watered as necessary, and observed and rated about 10-13 days after application of the compounds. Untreated control plants were used as standards in every test.

Wild Oat = tested on: Wild Oat
Source text: as §1, §2, §3, §4, §5

Foxtail = tested on: Foxtail; design: key: 1 = normal plants; 5 = dead plants or no emergence
Source text: as §1, §2, §3, §4, §5

Large Crabgrass = tested on: Large Crabgrass; design: key: 1 = normal plants; 5 = dead plants or no emergence
Source text: as §1, §2, §3, §4, §5

Morningglory = tested on: Morningglory; design: key: 1 = normal plants; 5 = dead plants or no emergence
Source text: as §1, §2, §3, §4, §5

Mustard = tested on: Mustard; design: key: 1 = normal plants; 5 = dead plants or no emergence
Source text: as §1, §2, §3, §4, §5

Pigweed = tested on: Pigweed; design: key: 1 = normal plants; 5 = dead plants or no emergence
Source text: as §1, §2, §3, §4, §5

Tomato = tested on: Tomato; design: key: 1 = normal plants; 5 = dead plants or no emergence
Source text: as §1, §2, §3, §4, §5

Velvetleaf = tested on: Velvetleaf; design: key: 1 = normal plants; 5 = dead plants or no emergence
Source text: as §1, §2, §3, §4, §5

Zinnia = tested on: Zinnia; design: key: 1 = normal plants; 5 = dead plants or no emergence
Source text: as §1, §2, §3, §4, §5

With `CN(C)c1nc(CC(=O)C(C)(C)C)no1` [5-dimethylamino-3-(2,2-dimethylpropionyl-methyl)-1,2,4-oxadiazole] the “Postemergence rating, Barnyard Grass” value (Barnyard Grass; Rate of Appln. 1 lbs./acre) was 4, the “Postemergence rating, Barnyard Grass” value (Barnyard Grass; Rate of Appln. 2 lbs./acre) was 4 and the “Postemergence rating, Barnyard Grass” value (Barnyard Grass; Rate of Appln. 4 lbs./acre) was 4. The “Postemergence rating, Wild Oat” value (Wild Oat; Rate of Appln. 1 lbs./acre) was 2, the “Postemergence rating, Wild Oat” value (Wild Oat; Rate of Appln. 2 lbs./acre) was 3 and the “Postemergence rating, Wild Oat” value (Wild Oat; Rate of Appln. 4 lbs./acre) was 4. The “Postemergence rating, Foxtail” value (Foxtail; Rate of Appln. 1 lbs./acre) was 4, the “Postemergence rating, Foxtail” value (Foxtail; Rate of Appln. 2 lbs./acre) was 5 and the “Postemergence rating, Foxtail” value (Foxtail; Rate of Appln. 4 lbs./acre) was 5. For the same compound, the “Postemergence rating, Large Crabgrass” value (Large Crabgrass; Rate of Appln. 1 lbs./acre) was 5, the “Postemergence rating, Large Crabgrass” value (Large Crabgrass; Rate of Appln. 2 lbs./acre) was 5 and the “Postemergence rating, Large Crabgrass” value (Large Crabgrass; Rate of Appln. 4 lbs./acre) was 5. For the same compound, the “Postemergence rating, Morningglory” value (Morningglory; Rate of Appln. 1 lbs./acre) was 2, the “Postemergence rating, Morningglory” value (Morningglory; Rate of Appln. 2 lbs./acre) was 5 and the “Postemergence rating, Morningglory” value (Morningglory; Rate of Appln. 4 lbs./acre) was 4. For the same compound, the “Postemergence rating, Mustard” value (Mustard; Rate of Appln. 1 lbs./acre) was 5, the “Postemergence rating, Mustard” value (Mustard; Rate of Appln. 2 lbs./acre) was 4 and the “Postemergence rating, Mustard” value (Mustard; Rate of Appln. 4 lbs./acre) was 5. The “Postemergence rating, Pigweed” value (Pigweed; Rate of Appln. 1 lbs./acre) was 5, the “Postemergence rating, Pigweed” value (Pigweed; Rate of Appln. 2 lbs./acre) was 5 and the “Postemergence rating, Pigweed” value (Pigweed; Rate of Appln. 4 lbs./acre) was 5. For the same compound, the “Postemergence rating, Tomato” value (Tomato; Rate of Appln. 1 lbs./acre) was 3, the “Postemergence rating, Tomato” value (Tomato; Rate of Appln. 2 lbs./acre) was 5 and the “Postemergence rating, Tomato” value (Tomato; Rate of Appln. 4 lbs./acre) was 5. For the same compound, the “Postemergence rating, Velvetleaf” value (Velvetleaf; Rate of Appln. 1 lbs./acre) was 5, the “Postemergence rating, Velvetleaf” value (Velvetleaf; Rate of Appln. 2 lbs./acre) was 5 and the “Postemergence rating, Velvetleaf” value (Velvetleaf; Rate of Appln. 4 lbs./acre) was 5. For the same compound, the “Postemergence rating, Zinnia” value (Zinnia; Rate of Appln. 1 lbs./acre) was 5, the “Postemergence rating, Zinnia” value (Zinnia; Rate of Appln. 2 lbs./acre) was 5 and the “Postemergence rating, Zinnia” value (Zinnia; Rate of Appln. 4 lbs./acre) was 5.
